The record followed here is patent US12624018B1, “Inhibitors of RIPK2 and medical uses thereof” (Odyssey Therapeutics, Inc., priority 2022, dated 2026).

This experiment has as its target T1, RIPK2 enzyme (Homo sapiens, UniProt O43353).
T1 construct: purchased Carna 09-128
Description: RIPK2 inhibition (ADP-Glo Kinase Assay). The format is biochemical. The settings on record: RIPK2 5 nM, ATP 150 μM, MBP substrate, read-out: RIPK2 IC50. The gist of the method: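 Human RIPK2 (5 nM) preincubated with compound 30 min at room temperature in 50 mM HEPES pH 7.5, 10 mM MgCl2, 2 mM DTT, 1 mM EGTA, 0.01% Brij-35, 0.05% BSA; native swine MBP as substrate. ADP formed quantified by ADP-Glo luminescence; percent inhibition relative to DMSO and no-enzyme controls.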
(ADP-Glo turns the ADP formed in a reaction into a luminescent signal.)

Where only a bound is given, the exact number is not on record here.

T1 sequence (O43353 1-299 limits assumed): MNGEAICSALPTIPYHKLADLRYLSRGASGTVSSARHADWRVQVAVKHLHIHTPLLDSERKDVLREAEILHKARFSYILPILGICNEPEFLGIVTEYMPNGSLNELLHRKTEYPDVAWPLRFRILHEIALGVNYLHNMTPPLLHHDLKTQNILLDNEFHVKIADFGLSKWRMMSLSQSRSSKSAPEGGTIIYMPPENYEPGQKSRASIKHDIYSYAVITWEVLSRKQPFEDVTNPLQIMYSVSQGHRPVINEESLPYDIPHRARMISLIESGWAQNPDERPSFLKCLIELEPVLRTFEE

With `Cc1cc(CC(=O)Nc2cnn(C(C)(C)C)c2)ccc1Oc1ccnc2ccc(S(=O)(=O)N3CCN(C)CC3)cc12` [Compound 118, N-(1-(tert-butyl)-1H-pyrazol-4-yl)-2-(3-methyl-4-((6-((4-methylpiperazin-1-yl)sulfonyl)quinolin-4-yl)oxy)phenyl)acetamide], the IC50 (in general, the concentration needed to halve the response being measured) was less than 2.5 nM. With `Cc1cc(CC(=O)Nc2cnn(C(C)(C)C)c2)ccc1Oc1ccnc2ccc(S(=O)(=O)N3CCNCC3)cc12` [Compound 119, N-(1-(tert-butyl)-1H-pyrazol-4-yl)-2-(3-methyl-4-((6-(piperazin-1-ylsulfonyl)quinolin-4-yl)oxy)phenyl)acetamide] the figure was less than 2.5 nM. For the molecule `Cc1cc(CC(=O)Nc2cnn(C(C)(C)C)c2)ccc1Oc1ccnc2ccc(OC3CCN(CC(F)F)CC3)cc12` [Compound 120, N-(1-(tert-butyl)-1H-pyrazol-4-yl)-2-(4-((6-((1-(2,2-difluoroethyl)piperidin-4-yl)oxy)quinolin-4-yl)oxy)-3-methylphenyl) acetamide], the IC50 was less than 2.5 nM. For `Cc1cc(CC(=O)Nc2cnn(C(C)(C)C)c2)ccc1Oc1ccnc2ccc(O[C@H]3CC[C@@H](N)CC3)cc12` [Compound 121, 2-(4-((6-(((1s,4s)-4-aminocyclo-hexyl)oxy)quinolin-4-yl)oxy)-3-methyl-phenyl)-N-(1-(tert-butyl)-1H-pyrazol-4-yl)acetamide], the IC50 was less than 2.5 nM.

In the case of `Cc1cc(CC(=O)Nc2cnn(C(C)(C)C)c2)ccc1Oc1ccnc2ccc(O[C@H]3CC[C@H](N)CC3)cc12` [Compound 122, 2-(4-((6-(((1r,4r)-4-aminocyclohexyl)oxy)quinolin-4-yl)oxy)-3-methylphenyl)-N-(1-(tert-butyl)-1H-pyrazol-4-yl)acetamide], the IC50 was less than 2.5 nM. Regarding `Cc1cc(CC(=O)Nc2cnn(C(C)(C)C)c2)ccc1Oc1ccnc2ccc(O[C@H]3C[C@@H](N)C3)cc12` [Compound 123, 2-(4-((6-((1s,3s)-3-aminocyclo-butoxy)quinolin-4-yl)oxy)-3-methyl-phenyl)-N-(1-(tert-butyl)-1H-pyrazol-4-yl)acetamide], the IC50 was less than 2.5 nM. With `Cc1cc(CC(=O)Nc2cnn(C(C)(C)C)c2)ccc1Oc1ccnc2ccc(O[C@H]3C[C@H](N)C3)cc12` [Compound 124, 2-(4-((6-((1r,3r)-3-aminocyclo-butoxy)quinolin-4-yl)oxy)-3-methyl-phenyl)-N-(1-(tert-butyl)-1H-pyrazol-4-yl)acetamide] the figure was less than 2.5 nM. With `CN1CCC(S(=O)(=O)c2ccc3nccc(Oc4ccc(CC(=O)Nc5cnn(C(C)(C)C)c5)c(F)c4)c3c2)CC1` [Compound 125, N-(1-(tert-butyl)-1H-pyrazol-4-yl)-2-(2-fluoro-4-((6-((1-methylpiperidin-4-yl)sulfonyl)quinolin-4-yl)oxy)phenyl)acetamide], the IC50 was less than 2.5 nM.

On to `CN1CCN(S(=O)(=O)c2ccc3nccc(Oc4ccc(CC(=O)Nc5cnn(C(C)(C)C)c5)c(F)c4)c3c2)CC1` [Compound 126, N-(1-(tert-butyl)-1H-pyrazol-4-yl)-2-(2-fluoro-4-((6-((4-methylpiperazin-1-yl)sulfonyl)quinolin-4-yl)oxy)phenyl)acetamide], for which the IC50 was less than 2.5 nM. Take `CC(C)(C)n1cc(NC(=O)Cc2ccc(Oc3ccnc4ccc(S(=O)(=O)C5CCNCC5)cc34)cc2F)cn1` [Compound 127, N-(1-(tert-butyl)-1H-pyrazol-4-yl)-2-(2-fluoro-4-((6-(piperidin-4-ylsulfonyl)quinolin-4-yl)oxy)phenyl)acetamide]: the IC50 was less than 2.5 nM. For `CC(C)(C)n1cc(NC(=O)Cc2ccc(Oc3ccnc4ccc(S(=O)(=O)N5CCNCC5)cc34)cc2F)cn1` [Compound 128, N-(1-(tert-butyl)-1H-pyrazol-4-yl)-2-(2-fluoro-4-((6-(piperazin-1-ylsulfonyl)quinolin-4-yl)oxy)phenyl)acetamide], the IC50 was less than 2.5 nM.
